According to PubChem BioAssay (NCI):
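Where inhibition never reached the appropriate level, the endpoint shown equals the highest concentration tested. Otherwise, values were interpolated linearly from a five-concentration, 48-hour dose response in 96-well plates. TGI: total growth inhibition.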

Tests used:
Test in all cases: NCI-60 cell line screen, 48 h
NCI/ADR-RES ovarian = tested on: NCI/ADR-RES ovarian
U251 CNS = tested on: U251 CNS
MALME-3M melanoma = tested on: MALME-3M melanoma
LOX IMVI melanoma = tested on: LOX IMVI melanoma
UACC-257 melanoma = tested on: UACC-257 melanoma
NCI-H226 lung = tested on: NCI-H226 lung
UO-31 renal = tested on: UO-31 renal
RPMI-8226 leukemia = tested on: RPMI-8226 leukemia
PC-3 prostate = tested on: PC-3 prostate
OVCAR-3 ovarian = tested on: OVCAR-3 ovarian
SK-MEL-2 melanoma = tested on: SK-MEL-2 melanoma
SF-539 CNS = tested on: SF-539 CNS
RXF 393 renal = tested on: RXF 393 renal
COLO 205 colon = tested on: COLO 205 colon
SN12C renal = tested on: SN12C renal
ACHN renal = tested on: ACHN renal
SNB-19 CNS = tested on: SNB-19 CNS
CCRF-CEM leukemia = tested on: CCRF-CEM leukemia
MCF7 breast = tested on: MCF7 breast
HOP-92 NSCLC = tested on: HOP-92 NSCLC
SF-268 CNS = tested on: SF-268 CNS
OVCAR-8 ovarian = tested on: OVCAR-8 ovarian
OVCAR-4 ovarian = tested on: OVCAR-4 ovarian
M14 melanoma = tested on: M14 melanoma
SF-295 CNS = tested on: SF-295 CNS
NCI-H23 lung = tested on: NCI-H23 lung
SK-MEL-5 melanoma = tested on: SK-MEL-5 melanoma
HT29 colon = tested on: HT29 colon
CAKI-1 renal = tested on: CAKI-1 renal
OVCAR-5 ovarian = tested on: OVCAR-5 ovarian
MDA-N = tested on: MDA-N
A498 renal = tested on: A498 renal
K-562 leukemia = tested on: K-562 leukemia
SW-620 colon = tested on: SW-620 colon
T-47D breast = tested on: T-47D breast
SR leukemia = tested on: SR leukemia
SK-OV-3 ovarian = tested on: SK-OV-3 ovarian
DU-145 prostate = tested on: DU-145 prostate
BT-549 breast = tested on: BT-549 breast
MDA-MB-435 = tested on: MDA-MB-435
HOP-62 NSCLC = tested on: HOP-62 NSCLC
MOLT-4 leukemia = tested on: MOLT-4 leukemia
HCT-15 colon = tested on: HCT-15 colon
KM12 colon = tested on: KM12 colon
HCC-2998 colon = tested on: HCC-2998 colon
SK-MEL-28 melanoma = tested on: SK-MEL-28 melanoma
786-0 renal = tested on: 786-0 renal
NCI-H460 lung = tested on: NCI-H460 lung
MDA-MB-231 breast = tested on: MDA-MB-231 breast
A549 NSCLC = tested on: A549 NSCLC
HCT-116 colon = tested on: HCT-116 colon
IGROV1 ovarian = tested on: IGROV1 ovarian
TK-10 renal = tested on: TK-10 renal
HL-60(TB) leukemia = tested on: HL-60(TB) leukemia
UACC-62 melanoma = tested on: UACC-62 melanoma
EKVX NSCLC = tested on: EKVX NSCLC
NCI-H522 lung = tested on: NCI-H522 lung
SNB-75 CNS = tested on: SNB-75 CNS

C[C@]12CCC3c4ccc(O)cc4CC[C@H]3C1CC(=O)NC2=O (some centres not stated)
TGI (NCI/ADR-RES ovarian): > 10 µM
TGI (U251 CNS): > 10 µM
TGI (MALME-3M melanoma): > 10 µM
TGI (LOX IMVI melanoma): > 10 µM
TGI (UACC-257 melanoma): > 10 µM
TGI (NCI-H226 lung): > 10 µM
TGI (UO-31 renal): > 10 µM
TGI (RPMI-8226 leukemia): > 10 µM
TGI (PC-3 prostate): > 10 µM
TGI (OVCAR-3 ovarian): > 10 µM
TGI (SK-MEL-2 melanoma): > 10 µM
TGI (SF-539 CNS): > 10 µM
TGI (RXF 393 renal): > 10 µM
TGI (COLO 205 colon): > 10 µM
TGI (SN12C renal): > 10 µM
TGI (ACHN renal): > 10 µM
TGI (SNB-19 CNS): > 10 µM
TGI (CCRF-CEM leukemia): > 10 µM
TGI (MCF7 breast): > 10 µM
TGI (HOP-92 NSCLC): > 10 µM
TGI (SF-268 CNS): > 10 µM
TGI (OVCAR-8 ovarian): > 10 µM
TGI (OVCAR-4 ovarian): > 10 µM
TGI (M14 melanoma): > 10 µM
TGI (SF-295 CNS): > 10 µM
TGI (NCI-H23 lung): > 10 µM
TGI (SK-MEL-5 melanoma): > 10 µM
TGI (HT29 colon): > 10 µM
TGI (CAKI-1 renal): > 10 µM
TGI (OVCAR-5 ovarian): > 10 µM
TGI (MDA-N): > 10 µM
TGI (A498 renal): > 10 µM
TGI (K-562 leukemia): > 10 µM
TGI (SW-620 colon): > 10 µM
TGI (T-47D breast): > 10 µM
TGI (SR leukemia): > 10 µM
TGI (SK-OV-3 ovarian): > 10 µM
TGI (DU-145 prostate): > 10 µM
TGI (BT-549 breast): > 10 µM
TGI (MDA-MB-435): > 10 µM
TGI (HOP-62 NSCLC): > 10 µM
TGI (MOLT-4 leukemia): > 10 µM
TGI (HCT-15 colon): > 10 µM
TGI (KM12 colon): > 10 µM
TGI (HCC-2998 colon): > 10 µM
TGI (SK-MEL-28 melanoma): > 10 µM
TGI (786-0 renal): > 10 µM
TGI (NCI-H460 lung): > 10 µM
TGI (MDA-MB-231 breast): > 10 µM
TGI (A549 NSCLC): > 10 µM
TGI (HCT-116 colon): > 10 µM
TGI (IGROV1 ovarian): > 10 µM
TGI (TK-10 renal): > 10 µM
TGI (HL-60(TB) leukemia): > 10 µM

CC(NC(=O)OC(C)(C)C)C(=O)NC(Cc1ccccc1)C(=O)NCC(=O)ON=C1CCCC1 (configuration not stated)
TGI (NCI/ADR-RES ovarian): > 100 µM
TGI (U251 CNS): > 100 µM
TGI (MALME-3M melanoma): > 100 µM
TGI (LOX IMVI melanoma): > 100 µM
TGI (UACC-257 melanoma): > 100 µM
TGI (UACC-62 melanoma): > 100 µM
TGI (NCI-H226 lung): > 100 µM
TGI (UO-31 renal): > 100 µM
TGI (RPMI-8226 leukemia): > 100 µM
TGI (PC-3 prostate): > 100 µM
TGI (OVCAR-3 ovarian): > 100 µM
TGI (SK-MEL-2 melanoma): > 100 µM
TGI (EKVX NSCLC): > 100 µM
TGI (SF-539 CNS): > 100 µM
TGI (RXF 393 renal): > 100 µM
TGI (COLO 205 colon): > 100 µM
TGI (NCI-H522 lung): > 100 µM
TGI (SN12C renal): > 100 µM
TGI (ACHN renal): > 100 µM
TGI (SNB-19 CNS): > 100 µM
TGI (CCRF-CEM leukemia): > 100 µM
TGI (MCF7 breast): > 100 µM
TGI (SNB-75 CNS): > 100 µM
TGI (HOP-92 NSCLC): > 100 µM
TGI (SF-268 CNS): > 100 µM
TGI (OVCAR-8 ovarian): > 100 µM
TGI (OVCAR-4 ovarian): > 100 µM
TGI (M14 melanoma): > 100 µM
TGI (SF-295 CNS): > 100 µM
TGI (NCI-H23 lung): > 100 µM
TGI (SK-MEL-5 melanoma): > 100 µM
TGI (HT29 colon): > 100 µM
TGI (CAKI-1 renal): > 100 µM
TGI (OVCAR-5 ovarian): > 100 µM
TGI (MDA-N): > 100 µM
TGI (A498 renal): > 100 µM
TGI (K-562 leukemia): > 100 µM
TGI (SW-620 colon): > 100 µM
TGI (T-47D breast): > 100 µM
TGI (SR leukemia): > 100 µM
TGI (SK-OV-3 ovarian): > 100 µM
TGI (DU-145 prostate): > 100 µM
TGI (BT-549 breast): > 100 µM
TGI (MDA-MB-435): > 100 µM
TGI (HOP-62 NSCLC): > 100 µM
TGI (MOLT-4 leukemia): > 100 µM
TGI (HCT-15 colon): > 100 µM
TGI (KM12 colon): > 100 µM
TGI (HCC-2998 colon): > 100 µM
TGI (SK-MEL-28 melanoma): > 100 µM
TGI (786-0 renal): > 100 µM
TGI (NCI-H460 lung): > 100 µM
TGI (MDA-MB-231 breast): > 100 µM
TGI (A549 NSCLC): > 100 µM
TGI (HCT-116 colon): > 100 µM
TGI (IGROV1 ovarian): > 100 µM
TGI (TK-10 renal): > 100 µM
TGI (HL-60(TB) leukemia): > 100 µM
